Assay [1] concerns the target GDP-bound NRAS wild-type protein (Homo sapiens, UniProt P01111). The experiment in a line: Binding to NRAS by surface plasmon resonance (SPR), Single Cycle Kinetics. Particulars: KD ratio NRAS/KRAS, class symbols.
For assay [2], the target named is GDP-bound HRAS wild-type protein (Homo sapiens, UniProt P01112). Briefly: Binding to HRAS by surface plasmon resonance (SPR), Single Cycle Kinetics. Particulars: KD ratio HRAS/KRAS, class symbols. (In general: In SPR one partner is held on a chip, and binding of the other changes the refractive index at the surface.)
Chain of GDP-bound HRAS wild-type protein (P01112 whole entry): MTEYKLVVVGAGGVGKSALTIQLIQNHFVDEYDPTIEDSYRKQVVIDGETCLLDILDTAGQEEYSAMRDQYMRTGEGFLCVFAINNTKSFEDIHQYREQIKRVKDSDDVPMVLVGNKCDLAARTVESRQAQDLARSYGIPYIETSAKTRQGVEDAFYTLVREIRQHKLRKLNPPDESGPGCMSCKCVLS

The results in this text go back to patent publication US20250230193A1, “CYCLIC COMPOUND HAVING SELECTIVE KRAS INHIBITORY EFFECT ON HRAS AND NRAS” (CHUGAI SEIYAKU KABUSHIKI KAISHA, priority 2022, published 2025).

Chain of GDP-bound NRAS wild-type protein (P01111 whole entry): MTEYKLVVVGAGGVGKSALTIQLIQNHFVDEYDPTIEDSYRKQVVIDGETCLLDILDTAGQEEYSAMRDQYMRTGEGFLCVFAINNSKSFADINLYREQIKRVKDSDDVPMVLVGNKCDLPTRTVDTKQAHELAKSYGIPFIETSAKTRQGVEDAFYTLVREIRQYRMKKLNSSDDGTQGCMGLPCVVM

`CCC[C@H]1C(=O)N[C@@H]([C@@H](C)CC)C(=O)N(C)CC(=O)N(C)[C@H]2C/C=C\CCN(C2=O)[C@@H](Cc2ccc(C(F)(F)F)cc2)C(=O)N(C)CC(=O)N[C@@H](CCc2cc(Cl)c3sccc3c2)C(=O)N2C[C@H](OCC)C[C@H]2C(=O)NC2(CC(C)(C)C2)C(=O)N(C)[C@@H](C(CC)CC)C(=O)N(C)[C@H](C(=O)N(C)C)CC(=O)N1C` [PP2888]: the “NRAS/KRAS (ratio of KD value with respect to GDP-bound NRAS wild-type protein to KD value with respect to KRAS)” value in assay [1] is recorded as “AA (a compound having 20 or more is denoted as AA)”. Besides, in assay [2], the “HRAS/KRAS (ratio of KD value with respect to GDP-bound HRAS wild-type protein to KD value with respect to KRAS)” value is “A (a compound having 10 or more and less than 20 is denoted as A)”.

Consider `CCC[C@H]1C(=O)N[C@@H]([C@@H](C)CC)C(=O)N(C)CC(=O)N(C)[C@H]2C/C=C\CCN(C2=O)[C@@H](Cc2ccc(C(F)(F)F)cc2)C(=O)N(C)CC(=O)N[C@@H](CCc2ccc3sc(C)c(C)c3c2)C(=O)N2C[C@H](OCC)C[C@H]2C(=O)NC2(CC(C)(C)C2)C(=O)N(C)[C@@H](C2CCCC2)C(=O)N(C)[C@H](C(=O)N(C)C)CC(=O)N1C` [PP2889], for which the “NRAS/KRAS (ratio of KD value with respect to GDP-bound NRAS wild-type protein to KD value with respect to KRAS)” value in assay [1] is “A (a compound having 10 or more and less than 20 is denoted as A)”. In assay [2], the “HRAS/KRAS (ratio of KD value with respect to GDP-bound HRAS wild-type protein to KD value with respect to KRAS)” value is “A (a compound having 10 or more and less than 20 is denoted as A)”.

`CCC[C@H]1C(=O)N[C@@H]([C@@H](C)CC)C(=O)N(C)CC(=O)N(C)[C@H]2C/C=C\CCN(C2=O)[C@@H](Cc2ccc(C)cc2)C(=O)N(C)CC(=O)N[C@@H](CCc2cc(Cl)c3sccc3c2)C(=O)N2C[C@H](OCC)C[C@H]2C(=O)NC2(CC(C)(C)C2)C(=O)N(C)[C@@H](C(CC)CC)C(=O)N(C)[C@H](C(=O)N(C)C)CC(=O)N1C` [PP2890]: in assay [1], the “NRAS/KRAS (ratio of KD value with respect to GDP-bound NRAS wild-type protein to KD value with respect to KRAS)” value is listed as “AA (a compound having 20 or more is denoted as AA)”. Moreover, the “HRAS/KRAS (ratio of KD value with respect to GDP-bound HRAS wild-type protein to KD value with respect to KRAS)” value in assay [2] is “A (a compound having 10 or more and less than 20 is denoted as A)”.

On to `CCC[C@H]1C(=O)N[C@@H]([C@@H](C)CC)C(=O)N(C)CC(=O)N(C)[C@H]2C/C=C\CCN(C2=O)[C@@H](Cc2ccc(C)cc2)C(=O)N(C)CC(=O)N[C@@H](CCc2ccc3sc(C)c(C)c3c2)C(=O)N2C[C@H](OCC)C[C@H]2C(=O)NC2(CC(C)(C)C2)C(=O)N(C)[C@@H](C2CCCC2)C(=O)N(C)[C@H](C(=O)N(C)C)CC(=O)N1C` [PP2891], for which the “NRAS/KRAS (ratio of KD value with respect to GDP-bound NRAS wild-type protein to KD value with respect to KRAS)” value in assay [1] was “A (a compound having 10 or more and less than 20 is denoted as A)”. In addition, the “HRAS/KRAS (ratio of KD value with respect to GDP-bound HRAS wild-type protein to KD value with respect to KRAS)” value in assay [2] is “B (a compound having 3 or more and less than 10 is denoted as B)”.

In the case of `CCC[C@H]1C(=O)N[C@@H]([C@@H](C)CC)C(=O)N(C)CC(=O)N(C)[C@H]2C/C=C\CCN(C2=O)[C@@H](Cc2ccc(C(F)(F)F)cc2)C(=O)N(C)CC(=O)N[C@@H](CCc2ccc3sc(F)c(C)c3c2)C(=O)N2C[C@H](OCC)C[C@H]2C(=O)NC2(CC(C)(C)C2)C(=O)N(C)[C@@H](C(CC)CC)C(=O)N(C)[C@H](C(=O)N(C)C)CC(=O)N1C` [PP2892], the “NRAS/KRAS (ratio of KD value with respect to GDP-bound NRAS wild-type protein to KD value with respect to KRAS)” value in assay [1] was “A (a compound having 10 or more and less than 20 is denoted as A)”. Besides, in assay [2], the “HRAS/KRAS (ratio of KD value with respect to GDP-bound HRAS wild-type protein to KD value with respect to KRAS)” value is “A (a compound having 10 or more and less than 20 is denoted as A)”.

Consider `CCC[C@H]1C(=O)N[C@@H]([C@@H](C)CC)C(=O)N(C)CC(=O)N(C)[C@H]2C/C=C\CCN(C2=O)[C@@H](Cc2ccc(C(F)(F)F)cc2)C(=O)N(C)CC(=O)N[C@@H](CCc2ccc3c(C)c(C)n(C)c3c2)C(=O)N2C[C@H](OCC)C[C@H]2C(=O)NC2(CC(C)(C)C2)C(=O)N(C)[C@@H](C2CCCC2)C(=O)N(C)[C@H](C(=O)N(C)C)CC(=O)N1C` [PP2893], for which, in assay [1], the “NRAS/KRAS (ratio of KD value with respect to GDP-bound NRAS wild-type protein to KD value with respect to KRAS)” value is “A (a compound having 10 or more and less than 20 is denoted as A)”. The “HRAS/KRAS (ratio of KD value with respect to GDP-bound HRAS wild-type protein to KD value with respect to KRAS)” value in assay [2] was “A (a compound having 10 or more and less than 20 is denoted as A)”.

As to `CCC[C@H]1C(=O)N[C@@H]([C@@H](C)CC)C(=O)N(C)CC(=O)N(C)[C@H]2C/C=C\CCN(C2=O)[C@@H](Cc2ccc(C)cc2)C(=O)N(C)CC(=O)N[C@@H](CCc2ccc3sc(F)c(C)c3c2)C(=O)N2C[C@H](OCC)C[C@H]2C(=O)NC2(CC(C)(C)C2)C(=O)N(C)[C@@H](C(CC)CC)C(=O)N(C)[C@H](C(=O)N(C)C)CC(=O)N1C` [PP2894], the “NRAS/KRAS (ratio of KD value with respect to GDP-bound NRAS wild-type protein to KD value with respect to KRAS)” value in assay [1] was “AA (a compound having 20 or more is denoted as AA)”. Moreover, the “HRAS/KRAS (ratio of KD value with respect to GDP-bound HRAS wild-type protein to KD value with respect to KRAS)” value in assay [2] is “A (a compound having 10 or more and less than 20 is denoted as A)”.

Regarding `CCC[C@H]1C(=O)N[C@@H]([C@@H](C)CC)C(=O)N(C)CC(=O)N(C)[C@H]2C/C=C\CCN(C2=O)[C@@H](Cc2ccc(C)cc2)C(=O)N(C)CC(=O)N[C@@H](CCc2ccc3c(C)c(C)n(C)c3c2)C(=O)N2C[C@H](OCC)C[C@H]2C(=O)NC2(CC(C)(C)C2)C(=O)N(C)[C@@H](C2CCCC2)C(=O)N(C)[C@H](C(=O)N(C)C)CC(=O)N1C` [PP2895], the “NRAS/KRAS (ratio of KD value with respect to GDP-bound NRAS wild-type protein to KD value with respect to KRAS)” value in assay [1] is “A (a compound having 10 or more and less than 20 is denoted as A)”. The “HRAS/KRAS (ratio of KD value with respect to GDP-bound HRAS wild-type protein to KD value with respect to KRAS)” value in assay [2] was “A (a compound having 10 or more and less than 20 is denoted as A)”.

As for `CCC[C@H]1C(=O)N[C@@H]([C@@H](C)CC)C(=O)N(C)CC(=O)N(C)[C@H]2C/C=C\CCN(C2=O)[C@@H](Cc2ccc(C(F)(F)F)cc2)C(=O)N(C)CC(=O)N[C@@H](CCc2ccc3c(C)cn(C)c3c2)C(=O)N2C[C@H](OCC)C[C@H]2C(=O)NC2(CC(C)(C)C2)C(=O)N(C)[C@@H](C2CCCC2)C(=O)N(C)[C@H](C(=O)N(C)C)CC(=O)N1C` [PP2897], the “NRAS/KRAS (ratio of KD value with respect to GDP-bound NRAS wild-type protein to KD value with respect to KRAS)” value in assay [1] is “A (a compound having 10 or more and less than 20 is denoted as A)”. Moreover, in assay [2], the “HRAS/KRAS (ratio of KD value with respect to GDP-bound HRAS wild-type protein to KD value with respect to KRAS)” value was “B (a compound having 3 or more and less than 10 is denoted as B)”.

For the compound `CCC[C@H]1C(=O)N[C@@H]([C@@H](C)CC)C(=O)N(C)CC(=O)N(C)[C@H]2C/C=C\CCN(C2=O)[C@@H](Cc2ccc(C)cc2)C(=O)N(C)CC(=O)N[C@@H](CCc2cc(Cl)c3c(ccn3C)c2)C(=O)N2C[C@H](OCC)C[C@H]2C(=O)NC2(CC(C)(C)C2)C(=O)N(C)[C@@H](C(CC)CC)C(=O)N(C)[C@H](C(=O)N(C)C)CC(=O)N1C` [PP2898], the “NRAS/KRAS (ratio of KD value with respect to GDP-bound NRAS wild-type protein to KD value with respect to KRAS)” value in assay [1] is “A (a compound having 10 or more and less than 20 is denoted as A)”. For the same compound, the “HRAS/KRAS (ratio of KD value with respect to GDP-bound HRAS wild-type protein to KD value with respect to KRAS)” value in assay [2] was “A (a compound having 10 or more and less than 20 is denoted as A)”.

Regarding `CCC[C@H]1C(=O)N[C@@H]([C@@H](C)CC)C(=O)N(C)CC(=O)N(C)[C@H]2C/C=C\CCN(C2=O)[C@@H](Cc2ccc(C)cc2)C(=O)N(C)CC(=O)N[C@@H](CCc2ccc3c(C)cn(C)c3c2)C(=O)N2C[C@H](OCC)C[C@H]2C(=O)NC2(CC(C)(C)C2)C(=O)N(C)[C@@H](C2CCCC2)C(=O)N(C)[C@H](C(=O)N(C)C)CC(=O)N1C` [PP2899], in assay [1], the “NRAS/KRAS (ratio of KD value with respect to GDP-bound NRAS wild-type protein to KD value with respect to KRAS)” value was “A (a compound having 10 or more and less than 20 is denoted as A)”. In assay [2], the “HRAS/KRAS (ratio of KD value with respect to GDP-bound HRAS wild-type protein to KD value with respect to KRAS)” value was “B (a compound having 3 or more and less than 10 is denoted as B)”.
